# Assay results as given in US20150291593A1, “NOVEL HETEROARYL AND HETEROCYCLE COMPOUNDS, COMPOSITIONS AND METHODS” (HUTCHISON MEDIPHARMA LIMITED, priority 2012, published 2015).
# Tests used:
# PI3Kγ = biological target: T1, PI3Kγ (Mus musculus, UniProt Q9JHG7); assay: Acumen Assay - Raw264.7 p-AKT Assay (C5a stimulated); type: cell-based; conditions: Raw264.7 macrophage cells, compound 30 min, 10 nM C5a 5 min, p-AKT (Ser473) readout; read-out: PI3Kγ cell-C5a Raw264.7 IC50
# T1 construct: endogenous in cells; host or cells: Raw264.7 macrophage cells
# Method: Acumen® eX3 (A Mμltilaser Microplate Cytometer For Enhanced High Content Screening): TTP LabTech
# 3×10^4 Raw264.7 macrophage cells were seeded into 96-well plates with DMEM+10% heat-inactivated FBS at […], 90 ul/well, overnight. After starvation for 3 hr at 37° C. under 5% CO2, Raw264.7 cells were treated with 10 ul/well various concentrations of compound or 0.5% DMSO for 30 min, and then stimulated with 10 ul/well 10 nM C5a for 5 min.
# 1.) Cells were fixed 110 μL of 4% pre-warmed Paraformaldehyde (2% final), incubate for 45 min at room temperature.
# 2.) Remove paraformaldehyde solution. Add 100 μL of ice-cold 0.1% Triton X-100 in PBS and leave at 4° C. for 30 min.
# 3.) Wash once in 100 μL PBS.
# 4.) Incubate with 100 μL blocking buffer (1% BSA, in PBS) for 2 hours at room temperature.
# 5.) Wash once for 5 min with 100 ul PBS.
# 6.) Incubate with 40 μL 1:200 dilution of phospho AKT (Ser473) rabbit antibody in antibody dilution buffer (0.1% BSA, in PBS) overnight at 4° C.
# 7.) Wash for 3 times for 10 min with 100 ul PBS.
# 8.) Incubate for 90 min at room temperature with 50 μL of goat anti-rabbit Alex488 antibody at a 1:1,000 dilution in antibody dilution buffer (0.1% BSA, in PBS). Cover plate in foil to keep out of light.
# 9.) Wash for 3 times for 10 min with 100 μL PBS.
# 10.) Add 50 μL of 1.5 μM Propidium Iodide solution to each well to determine cell number at a 1:1,000 dilution in PBS (stock: 1.5 mM).
# 11.) Incubate at room temperature for 30 min.
# 12.) Seal the plate with a black cover-seal (supplied with plate).
# 13.) Load the plate into the Acumen Explorer and scan with the appropriate instrument settings.
# p110β/p85α = biological target: T2, p110β/p85α (Homo sapiens, UniProt P42338); assay: Transcreener KINASE Assay, kinase inhibition of p110β/p85α; type: biochemical; conditions: for IC50: read-out: PI3Kβ IC50
# T2 construct: purchased Millipore
# Method: (§1) PI3K kinases including p110α/p85α, p110δ/p85α and p110γ are purchased from Invitrogen, and p110β/p85α is from Millipore.
# (§2) Primary screening data and IC50 values are measured using Transcreener™ KINASE Assay (Bellbrook, Catalog #3003-10K). […] It is a universal, homogenous, high throughput screening (HTS) technology using a far-red, competitive fluorescence polarization immunoassay based on the detection of ADP to monitor the activity of enzymes that catalyze group transfer reactions. Briefly, the Transcreener KINASE Assay is designed as a simple two-part, endpoint assay.
# (§3) In the first step, the 25 ul kinase reaction is performed by preparing a reaction mixture containing 5 ul test compound (2% DMSO final concentration), 10 ul kinase, buffer (50 mM HEPES, 100 mM NaCl, 1 mM EGTA, 0.03% CHAPS, 3 mM MgCl2, and freshly supplemented 1 mM DTT), and 10 ul 30 uM PIP2/10 uM ATP. The plate is sealed and incubated for 80 min at room temperature. Next, 25 ul ADP detection mix is added per well. The plate is sealed again and incubated for 60 min at room temperature, and then measure fluorescence polarization by Tecan Infinite F500 Reader.
# (§4) Data is analyzed and IC50s are generated using the add-in software for Microsoft Excel, Xlfit™ (version 2.0). IH %=(ADP amount under 2% DMSO-ADP amount under test compound)/ADP amount under 2% DMSO.
# p110δ/p85α = biological target: T3, p110δ/p85α (Homo sapiens, UniProt O00329); assay: Transcreener KINASE Assay, kinase inhibition of p110δ/p85α; type: biochemical; conditions: for IC50: read-out: PI3Kδ IC50
# T3 construct: purchased Invitrogen
# Method: as §1, §2, §3, §4
# p110γ = biological target: T4, p110γ (Homo sapiens, UniProt P48736); assay: Transcreener KINASE Assay, kinase inhibition of p110γ; type: biochemical; conditions: for IC50: read-out: PI3Kγ IC50
# T4 construct: purchased Invitrogen
# Method: PI3K kinases including p110α/p85α, p110δ/p85α and p110γ are purchased from Invitrogen, and p110β/p85α is from Millipore. Primary screening data and IC50 values are measured using Transcreener™ KINASE Assay (Bellbrook, Catalog #3003-10K). […] It is a universal, homogenous, high throughput screening (HTS) technology using a far-red, competitive fluorescence polarization immunoassay based on the detection of ADP to monitor the activity of enzymes that catalyze group transfer reactions. Briefly, the Transcreener KINASE Assay is designed as a simple two-part, endpoint assay. […] The plate is sealed and incubated for 80 min at room temperature. Next, 25 ul ADP detection mix is added per well. The plate is sealed again and incubated for 60 min at room temperature, and then measure fluorescence polarization by Tecan Infinite F500 Reader. Data is analyzed and IC50s are generated using the add-in software for Microsoft Excel, Xlfit™ (version 2.0).
# T1 sequence (Q9JHG7 whole entry): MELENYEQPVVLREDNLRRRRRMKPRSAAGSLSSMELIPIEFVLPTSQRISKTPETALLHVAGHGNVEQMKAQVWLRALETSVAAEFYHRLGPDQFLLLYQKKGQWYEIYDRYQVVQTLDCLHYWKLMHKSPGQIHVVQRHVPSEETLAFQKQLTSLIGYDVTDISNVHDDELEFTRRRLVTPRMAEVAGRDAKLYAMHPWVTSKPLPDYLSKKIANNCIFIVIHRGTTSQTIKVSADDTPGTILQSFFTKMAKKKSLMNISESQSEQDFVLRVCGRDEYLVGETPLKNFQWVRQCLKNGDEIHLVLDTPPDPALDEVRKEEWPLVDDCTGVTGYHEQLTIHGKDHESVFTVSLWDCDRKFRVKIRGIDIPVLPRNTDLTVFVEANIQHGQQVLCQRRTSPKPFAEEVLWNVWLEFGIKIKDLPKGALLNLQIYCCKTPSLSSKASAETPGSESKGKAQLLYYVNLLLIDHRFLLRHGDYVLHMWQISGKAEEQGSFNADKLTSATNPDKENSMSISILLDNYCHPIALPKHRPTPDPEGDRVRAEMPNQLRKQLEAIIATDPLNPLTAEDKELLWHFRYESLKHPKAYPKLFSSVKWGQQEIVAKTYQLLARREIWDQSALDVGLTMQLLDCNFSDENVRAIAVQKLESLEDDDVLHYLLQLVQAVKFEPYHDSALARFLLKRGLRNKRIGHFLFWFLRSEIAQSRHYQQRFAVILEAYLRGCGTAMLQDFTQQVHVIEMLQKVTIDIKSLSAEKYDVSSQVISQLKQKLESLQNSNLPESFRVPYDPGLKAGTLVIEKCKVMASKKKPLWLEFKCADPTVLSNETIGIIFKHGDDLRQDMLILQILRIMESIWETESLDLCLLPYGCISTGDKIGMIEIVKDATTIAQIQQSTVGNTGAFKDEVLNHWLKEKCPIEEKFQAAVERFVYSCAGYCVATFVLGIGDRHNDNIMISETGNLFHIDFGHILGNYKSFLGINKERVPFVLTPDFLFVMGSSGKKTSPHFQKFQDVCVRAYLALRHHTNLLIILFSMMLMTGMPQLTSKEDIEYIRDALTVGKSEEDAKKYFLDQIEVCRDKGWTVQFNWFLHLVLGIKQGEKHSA
# T3 sequence (O00329 whole entry, species assumed): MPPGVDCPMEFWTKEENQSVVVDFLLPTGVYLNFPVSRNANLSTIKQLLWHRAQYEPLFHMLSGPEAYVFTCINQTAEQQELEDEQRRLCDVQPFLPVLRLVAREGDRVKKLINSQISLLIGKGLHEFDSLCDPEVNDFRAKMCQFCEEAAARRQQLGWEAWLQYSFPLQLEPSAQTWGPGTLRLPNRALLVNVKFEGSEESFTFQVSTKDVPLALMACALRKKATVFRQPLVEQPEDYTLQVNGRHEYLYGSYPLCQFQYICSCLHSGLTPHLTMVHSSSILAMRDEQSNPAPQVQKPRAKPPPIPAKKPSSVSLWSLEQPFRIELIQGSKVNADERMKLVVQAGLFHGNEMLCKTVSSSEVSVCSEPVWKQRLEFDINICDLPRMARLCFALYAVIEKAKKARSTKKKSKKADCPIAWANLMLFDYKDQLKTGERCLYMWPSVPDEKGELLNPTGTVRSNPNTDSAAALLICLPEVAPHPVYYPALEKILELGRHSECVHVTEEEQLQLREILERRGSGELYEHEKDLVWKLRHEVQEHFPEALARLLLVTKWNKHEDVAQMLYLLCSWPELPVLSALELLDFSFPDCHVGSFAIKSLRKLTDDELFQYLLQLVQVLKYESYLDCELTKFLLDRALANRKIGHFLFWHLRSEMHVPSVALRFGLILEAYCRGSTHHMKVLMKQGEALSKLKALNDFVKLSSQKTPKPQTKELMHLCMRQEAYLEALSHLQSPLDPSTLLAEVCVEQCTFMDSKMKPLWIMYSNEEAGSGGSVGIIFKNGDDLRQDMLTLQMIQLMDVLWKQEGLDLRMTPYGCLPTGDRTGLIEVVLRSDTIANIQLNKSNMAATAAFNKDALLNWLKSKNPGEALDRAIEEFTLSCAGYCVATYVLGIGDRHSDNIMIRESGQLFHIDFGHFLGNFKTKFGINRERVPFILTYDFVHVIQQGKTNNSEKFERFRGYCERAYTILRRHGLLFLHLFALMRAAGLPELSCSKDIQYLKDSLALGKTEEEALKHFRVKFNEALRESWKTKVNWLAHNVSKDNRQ
# T3 sequence (P27986 whole entry partner, species assumed): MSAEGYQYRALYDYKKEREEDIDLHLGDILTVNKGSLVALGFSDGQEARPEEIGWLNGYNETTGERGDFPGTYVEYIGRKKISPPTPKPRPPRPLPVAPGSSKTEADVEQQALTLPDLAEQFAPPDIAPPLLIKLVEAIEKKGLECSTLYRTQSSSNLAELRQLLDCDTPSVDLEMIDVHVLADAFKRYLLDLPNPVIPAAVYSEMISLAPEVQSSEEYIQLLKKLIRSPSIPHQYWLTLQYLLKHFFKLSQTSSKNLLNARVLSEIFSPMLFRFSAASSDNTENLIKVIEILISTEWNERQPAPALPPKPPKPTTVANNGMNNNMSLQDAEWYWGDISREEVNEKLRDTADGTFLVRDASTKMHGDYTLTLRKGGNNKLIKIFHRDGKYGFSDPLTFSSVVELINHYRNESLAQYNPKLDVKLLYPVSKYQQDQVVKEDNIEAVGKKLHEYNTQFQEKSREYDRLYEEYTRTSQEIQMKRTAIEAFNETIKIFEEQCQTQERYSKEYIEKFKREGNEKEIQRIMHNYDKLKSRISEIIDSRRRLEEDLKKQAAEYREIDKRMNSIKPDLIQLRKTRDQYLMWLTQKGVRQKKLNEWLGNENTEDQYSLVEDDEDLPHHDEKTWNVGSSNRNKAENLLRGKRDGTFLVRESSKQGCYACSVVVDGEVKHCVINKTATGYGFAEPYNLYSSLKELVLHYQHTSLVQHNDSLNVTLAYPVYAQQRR
# T2 sequence (P42338 whole entry, species assumed): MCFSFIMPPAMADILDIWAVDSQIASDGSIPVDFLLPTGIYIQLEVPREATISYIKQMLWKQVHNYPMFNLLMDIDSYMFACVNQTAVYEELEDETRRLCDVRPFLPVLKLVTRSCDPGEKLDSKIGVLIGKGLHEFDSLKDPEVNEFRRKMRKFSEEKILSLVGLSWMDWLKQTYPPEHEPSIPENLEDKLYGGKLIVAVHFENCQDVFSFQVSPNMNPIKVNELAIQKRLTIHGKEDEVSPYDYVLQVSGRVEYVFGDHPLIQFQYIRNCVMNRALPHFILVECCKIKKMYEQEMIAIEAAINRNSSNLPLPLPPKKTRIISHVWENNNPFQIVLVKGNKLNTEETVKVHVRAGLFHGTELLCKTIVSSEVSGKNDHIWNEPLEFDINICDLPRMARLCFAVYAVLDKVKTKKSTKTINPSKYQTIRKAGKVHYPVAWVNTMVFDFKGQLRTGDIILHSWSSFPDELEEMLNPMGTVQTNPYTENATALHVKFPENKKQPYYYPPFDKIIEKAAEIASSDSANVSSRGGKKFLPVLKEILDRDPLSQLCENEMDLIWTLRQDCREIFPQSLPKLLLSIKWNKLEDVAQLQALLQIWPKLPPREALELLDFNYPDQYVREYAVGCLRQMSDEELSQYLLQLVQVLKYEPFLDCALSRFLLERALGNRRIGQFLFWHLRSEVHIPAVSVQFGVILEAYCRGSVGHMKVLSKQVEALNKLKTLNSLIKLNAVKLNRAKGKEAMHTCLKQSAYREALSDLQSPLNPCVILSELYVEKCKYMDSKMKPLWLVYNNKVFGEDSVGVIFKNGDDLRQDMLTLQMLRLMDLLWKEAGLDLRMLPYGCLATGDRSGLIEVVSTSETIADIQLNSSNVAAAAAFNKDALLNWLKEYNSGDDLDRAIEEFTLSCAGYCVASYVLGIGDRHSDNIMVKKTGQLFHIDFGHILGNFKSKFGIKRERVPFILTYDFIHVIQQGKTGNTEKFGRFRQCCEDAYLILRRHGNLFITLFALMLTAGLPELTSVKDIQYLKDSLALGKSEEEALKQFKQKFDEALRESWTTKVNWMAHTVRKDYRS
# T2 sequence (P27986 whole entry partner, species assumed): as the sequence (P27986 whole entry partner, species assumed) above
# T4 sequence (P48736 whole entry, species assumed): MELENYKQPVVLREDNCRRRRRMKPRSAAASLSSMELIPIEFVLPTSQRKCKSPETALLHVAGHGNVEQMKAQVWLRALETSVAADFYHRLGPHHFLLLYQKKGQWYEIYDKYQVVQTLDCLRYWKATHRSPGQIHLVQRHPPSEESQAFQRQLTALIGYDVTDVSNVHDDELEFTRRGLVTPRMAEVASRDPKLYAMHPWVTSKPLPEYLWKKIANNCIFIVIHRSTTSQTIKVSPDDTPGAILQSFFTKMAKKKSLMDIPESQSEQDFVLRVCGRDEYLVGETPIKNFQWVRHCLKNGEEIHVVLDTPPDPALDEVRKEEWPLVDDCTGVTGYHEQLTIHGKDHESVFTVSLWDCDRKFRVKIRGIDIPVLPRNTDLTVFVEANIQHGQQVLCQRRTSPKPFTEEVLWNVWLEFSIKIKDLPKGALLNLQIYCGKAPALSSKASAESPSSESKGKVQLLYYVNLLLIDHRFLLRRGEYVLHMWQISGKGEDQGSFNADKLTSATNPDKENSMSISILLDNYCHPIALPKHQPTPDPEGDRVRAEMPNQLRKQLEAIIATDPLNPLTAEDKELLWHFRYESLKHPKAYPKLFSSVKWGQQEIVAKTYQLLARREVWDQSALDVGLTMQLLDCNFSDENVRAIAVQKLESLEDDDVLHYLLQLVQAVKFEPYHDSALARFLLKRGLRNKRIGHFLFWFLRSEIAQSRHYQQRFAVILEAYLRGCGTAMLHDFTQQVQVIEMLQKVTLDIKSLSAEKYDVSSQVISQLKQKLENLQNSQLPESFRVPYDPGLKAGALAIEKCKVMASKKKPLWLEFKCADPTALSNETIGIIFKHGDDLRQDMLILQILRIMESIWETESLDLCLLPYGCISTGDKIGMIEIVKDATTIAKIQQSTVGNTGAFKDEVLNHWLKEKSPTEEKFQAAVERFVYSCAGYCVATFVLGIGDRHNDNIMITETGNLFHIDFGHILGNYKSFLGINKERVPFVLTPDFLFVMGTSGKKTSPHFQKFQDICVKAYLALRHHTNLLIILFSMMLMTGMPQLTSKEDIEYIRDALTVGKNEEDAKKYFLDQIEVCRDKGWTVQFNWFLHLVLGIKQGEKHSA
SMILES,IC50 (PI3Kγ) [nM],PI3Kβ IH % @ 1 uM (p110β/p85α) [%],PI3Kδ IH % @ 1 uM (p110δ/p85α) [%],PI3Kγ IH % @ 1 uM (p110γ) [%],further results
N#Cc1cnc(N)nc1N1C[C@@H](F)C[C@H]1c1nn2ccc(Cl)c2c(=O)n1-c1ccccc1 [Compound 229],11,,,,
Nc1nc2c(c(N3CCC[C@H]3c3nn4ccc(Cl)c4c(=O)n3-c3ccccc3)n1)C(=O)CCN2 [Compound 242],21,,,,
O=c1c2c(F)ccn2nc([C@@H]2CCCN2c2ncnc3[nH]cnc23)n1-c1cccc(F)c1 [Compound 191],54,,,,
CC(=O)c1c[nH]c2ncnc(N3CCC[C@H]3c3nn4ccc(Cl)c4c(=O)n3-c3ccccn3)c12 [Compound 340],45,,,,
N#Cc1c[nH]c2ncnc(N3C[C@@H](F)C[C@H]3c3nn4ccc(Cl)c4c(=O)n3-c3cccc(F)c3)c12 [Compound 213],2,,,,
N#Cc1cnc(N)nc1N1CCC[C@H]1c1nn2ccc(Cl)c2c(=O)n1-c1ccc(F)cc1 [Compound 231],15,,,,
"N#Cc1c[nH]c2ncnc(N3CC(=O)C[C@H]3c3nn4ccc(Cl)c4c(=O)n3-c3ccccc3)c12 [Compound 380, (S)-4-(2-(5-chloro-4-oxo-3-phenyl-3,4-dihydropyrrolo[2,1-f][1,2,4]triazin-2-yl)-4-oxopyrrolidin-1-yl)-7H-pyrrolo[2,3-d]pyrimidine-5-carbonitrile]",19,,,,
CC(=O)c1cnc(N)nc1N1C[C@H](C)[C@H]1c1nn2ccc(Cl)c2c(=O)n1-c1ccc(F)cc1 [Compound 206],5,,,,
CC(=O)c1cnc(N)nc1N1CCCC1c1cn2ccc(Cl)c2c(=O)n1-c1ccccc1 (centres unmarked) [Compound 321],9,,,,
N#Cc1cnc(N)nc1N1CC(=O)C[C@H]1c1nn2ccc(Cl)c2c(=O)n1-c1ccccc1 [Compound 403],11,,,,
CC(=O)c1cnc(N)nc1NC(C)c1cn2ccc(Cl)c2c(=O)n1-c1ccccc1 (centres unmarked) [Compound 273],3,,,,
N#Cc1cnc(N)nc1N1CCC[C@H]1c1nn2ccc(Cl)c2c(=O)n1-c1ccccc1 [Compound 207],22,,,,
O=c1c2cccn2nc([C@@H]2CCCN2c2ncnc3[nH]cnc23)n1-c1cccc(Cl)c1 [Compound 17],,9.2,100,60.3,
CC(Nc1ncnc(N)c1C#N)c1cn2ccc(Cl)c2c(=O)n1-c1cc(F)cc(F)c1 (centres unmarked) [Compound 81],,79.0,>100,,IC50 (p110δ/p85α): 6 nM; IC50 (p110γ): 70 nM
CC(=O)c1cnc(N)nc1N1C[C@H](C)[C@H]1c1nn2ccc(F)c2c(=O)n1-c1ccccc1 [Compound 324],63,,,,
C[C@H]1CCN(c2ncnc3[nH]cnc23)C1c1nn2ccc(Cl)c2c(=O)n1-c1ccccc1 (some centres unmarked) [Compound 234],,,,,IC50 (p110β/p85α): 50 nM; IC50 (p110δ/p85α): 2 nM; IC50 (p110γ): 12 nM

SMILES,IC50 (PI3Kγ) [nM],PI3Kβ IH % @ 1 uM (p110β/p85α) [%],PI3Kδ IH % @ 1 uM (p110δ/p85α) [%],PI3Kγ IH % @ 1 uM (p110γ) [%],further results
Nc1ncnc(N2CCC[C@H]2c2nn3cccc3c(=O)n2-c2ccccc2)c1Cl [Compound 18],,30.9,100,53.2,
"CC(=O)c1cnc(N)nc1N1CCC[C@H]1c1nn2ccc(Cl)c2c(=O)n1-c1ccccc1 [Compound 369, (S)-2-(1-(5-acetyl-2-aminopyrimidin-4-yl)pyrrolidin-2-yl)-5-chloro-3-phenylpyrrolo[2,1-f][1,2,4]triazin-4(3H)-one]",22,,,,
Nc1nc(N2CCC[C@H]2c2nn3cccc3c(=O)n2-c2ccccc2)c2cn[nH]c2n1 [Compound 11],,−7.7,22.9,24.4,
O=c1c2cccn2nc([C@@H]2CCCN2c2ncnc3[nH]cnc23)n1-c1cccc(F)c1 [Compound 13],,18.0,97.8,71.9,IC50 (p110γ): 477 nM
CC(Nc1ncnc2[nH]cc(C#N)c12)c1cc2cccn2c(=O)n1-c1ccccc1 (centres unmarked) [Compound 121],,63.9,92.7,>100,
"N#Cc1n[nH]c2ncnc(N3CCC[C@H]3c3nn4cccc4c(=O)n3-c3ccccc3)c12 [Compound 110, (S)-4-(2-(4-oxo-3-phenyl-3,4-dihydropyrrolo[1,2-f][1,2,4]triazin-2-yl)pyrrolidin-1-yl)-1H-pyrazolo[3,4-d]pyrimidine-3-carbonitrile]",,23.9,72.8,38.7,
CC(Nc1ncnc2[nH]cc(F)c12)c1cc2ncc(Cl)n2c(=O)n1-c1ccccc1 (centres unmarked) [Compound 285],46,,,,
N#Cc1cnc(N)nc1N1CCC[C@H]1c1nn2ccc(Cl)c2c(=O)n1-c1cccc(F)c1 [Compound 232],44,,,,
N#Cc1c[nH]c2ncnc(N3CCC[C@H]3c3nn4cccc4c(=O)n3-c3cccc(F)c3)c12 [Compound 16],,25.1,100,87.3,IC50 (p110γ): 85 nM
"CC(=O)c1cnc(N)nc1NC(C)c1cn2ccc(F)c2c(=O)n1-c1ccccc1 (single isomer, unassigned) [Compound 452]",,,,,IC50 (p110β/p85α): 13 nM; IC50 (p110δ/p85α): 0.3 nM; IC50 (p110γ): 1 nM
COc1cccc(-n2c([C@@H]3CCCN3c3ncnc(N)c3Cl)nn3cccc3c2=O)c1 [Compound 21],,−1.3,94.3,30.4,
CC(Nc1ncnc2[nH]cc(C#N)c12)c1cn2ccc(Cl)c2c(=O)n1-c1cccc(F)c1 (centres unmarked) [Compound 76],,82.0,,,IC50 (p110δ/p85α): 4 nM; IC50 (p110γ): 10 nM
O=c1c2c(Cl)ccn2nc([C@@H]2CC(F)(F)CN2c2ncnc3[nH]cnc23)n1Cc1ccccn1 [Compound 159],,32.8,85.0,20.4,IC50 (p110δ/p85α): 127 nM
Nc1nc(N2CCC[C@H]2c2nn3cccc3c(=O)n2-c2ccccc2)c2cc[nH]c2n1 [Compound 10],,6.0,60.4,59.5,
COc1cccc(-n2c([C@@H]3CCCN3c3ncnc4[nH]cc(C#N)c34)nn3cccc3c2=O)c1 [Compound 9],,31.1,>100,83.8,
